Source: US20220202905A1, “COMPOSITION FOR PREVENTING OR TREATING NEUROTROPHIC KERATITIS WHICH CONTAINS PACAP PEPTIDE OR STABILIZED PACAP PEPTIDE” (SENJU PHARMACEUTICAL CO., LTD., priority 2019, published 2022)
Square brackets hold non-standard residues; d marks the D form. Peptide text beside a SMILES is read from it. * marks the point of attachment. Ala(1H-tetrazol-5-yl) = N[C@@H](Cc1nnn[nH]1)C(=O)O; Ms = CS(=O)(=O)*

Assay: Peptide stability test, Tris buffer (pH 7.0), 60° C. storage, HPLC remaining rate
Type: physicochemical
Details: 100 μM in Tris buffer pH 7.0
Description: Peptides 1, 2 and 6 to 9 synthesized in Example 2 were weighed and dissolved in Tris buffer (pH 7.0) to prepare 1.0 mM peptide solutions. Each solution was filtered with a Chromatdisk (product of Merck Millipore, Millex-GV, 0.22 μm). The filtrate was diluted to 100 μM with Tris buffer (pH 7.0) and dispensed into a tube (Protein LoBind Tube by Eppendorf Co.). The prepared peptide solutions were incubated for 1 week or 2 weeks in a 60° C. thermostatic bath to obtain stored samples. A simultaneously prepared sample among the peptide solutions that was not stored was used as a standard sample (initial sample). The standard sample and the stored samples were stored at −30° C. until sample analysis. Each stored sample was measured under the following HPLC analysis conditions 2, and the remaining rate after correction for water for each peptide among the stored samples was calculated in the same manner as Example 3. Guard column: XSelect CSH C18 by Waters Co., 5 μm, 4.6×20 mm Guard Cartridge Detection wavelength: 220 nm Mobile phase A: 0.1% formic acid aqueous solution Mobile phase B: 0.1% acetonitrile formate solution Measuring time: 20 minutes Measuring sample injection rate: 50 μL Flow rate: 1.0 mL/min Column temperature: 40° C. Sample cooler: 25° C. Mobile phase delivery: The mixing ratio of mobile phase A and mobile phase B was varied as shown in Table 5 for linear concentration gradient control. Peptides 12 to 25, 27 and 28 synthesized in Example 2 were weighed and dissolved in Tris buffer (pH 7.0) to prepare 1.0 mM peptide solutions. Each solution was filtered with a Chromatdisk (product of Merck Millipore, Millex-GV, 0.22 μm). The filtrate was diluted to 100 μM with Tris buffer (pH 7.0) and dispensed into a tube (Protein LoBind Tube by Eppendorf Co.). The prepared peptide solutions were incubated for one week or 2 weeks in a 60° C. thermostatic bath to obtain stored samples. A simultaneously prepared sample among the peptide solutions that was not stored was used as a standard sample (initial sample). The standard sample and the stored samples were stored at −30° C. until sample analysis. The remaining rate after correction for water for each peptide among the stored samples was calculated in the same manner as Example 4, and the results are shown in Table 7. Peptides 29 to 34 synthesized in Example 2 were weighed and dissolved in Tris buffer (pH 7.0) to prepare 1.0 mM peptide solutions. Each solution was filtered with a Chromatdisk (product of Merck Millipore, Millex-GV, 0.22 μm). The filtrate was diluted to 100 μM with Tris buffer (pH 7.0) and dispensed into a tube (Protein LoBind Tube by Eppendorf Co.). The prepared peptide solutions were incubated for 2 weeks in a 60° C. thermostatic bath to obtain stored samples. A simultaneously prepared sample among the peptide solutions that was not stored was used as a standard sample (initial sample). The standard sample and the stored samples were stored at −30° C. until sample analysis. The remaining rate after correction for water for each peptide among the stored samples was calculated in the same manner as Example 4, and the results are shown in Table 7-2. Peptide 26 synthesized in Example 2 was weighed and dissolved in Tris buffer (pH 7.0) to prepare a 1.0 mM peptide solution. The solution was filtered with a Chromatdisk (product of Merck Millipore, Millex-GV, 0.22 μm). The filtrate was diluted to 100 μM with Tris buffer (pH 7.0) and dispensed into a tube (Protein LoBind Tube by Eppendorf Co.). The prepared peptide solution was incubated for one week or 2 weeks in a 60° C. thermostatic bath to obtain stored samples. A simultaneously prepared sample among the peptide solutions that was not stored was used as a standard sample (initial sample). The standard sample and the stored sample were stored at −30° C. until sample analysis. […]

| SMILES | remaining rate after correction for water, 60° C., 1 week preservation (Table 7) [%] | remaining rate after correction for water, 60° C., 2 weeks preservation (Table 7) [%] | other results |
| --- | --- | --- | --- |
| CC[C@H](C)[C@H](NC(=O)CNC(=O)[C@H](Cc1nnn[nH]1)NC(=O)[C@H](CO)NC(=O)[C@H](Cc1c[nH]cn1)NC(C)=O)C(=O)N[C@@H](Cc1ccccc1)C(=O)N[C@H](C(=O)N[C@@H](Cc1nnn[nH]1)C(=O)N[C@@H](CO)C(=O)N[C@@H](Cc1ccc(O)cc1)C(=O)N[C@@H](CO)C(=O)N[C@@H](CCCNC(=N)N)C(=O)N[C@@H](Cc1ccc(O)cc1)C(=O)N[C@@H](CCCNC(=N)N)C(=O)N[C@@H](CCCNC(=N)N)C(=O)N[C@@H](CCC(N)=O)C(=O)N[C@@H](CC(C)C)C(=O)N[C@@H](C)C(=O)N[C@H](C(=O)N[C@@H](CCCNC(=N)N)C(=O)N[C@@H](CCCNC(=N)N)C(=O)N[C@@H](Cc1ccc(O)cc1)C(=O)N[C@@H](CC(C)C)C(=O)N[C@@H](C)C(=O)N[C@@H](C)C(=O)N[C@H](C(=O)N[C@@H](CC(C)C)C(=O)NCC(=O)N[C@@H](CCCNC(=N)N)C(=O)N[C@@H](CCCNC(=N)N)C(N)=O)C(C)C)C(C)C)[C@@H](C)O [Peptide 22] (Ac-HS[Ala(1H-tetrazol-5-yl)]GIFT[Ala(1H-tetrazol-5-yl)]SYSRYRRQLAVRRYLAAVLGRR-NH2) | 98.2 | – | – |
| CC[C@H](C)[C@H](NC(=O)CNC(=O)[C@H](Cc1nnn[nH]1)NC(=O)[C@H](C)NC(=O)[C@H](Cc1c[nH]cn1)NC(C)=O)C(=O)N[C@@H](Cc1ccccc1)C(=O)N[C@H](C(=O)N[C@@H](Cc1nnn[nH]1)C(=O)N[C@@H](C)C(=O)N[C@@H](Cc1ccc(O)cc1)C(=O)N[C@@H](CO)C(=O)N[C@@H](CCCNC(=N)N)C(=O)N[C@@H](Cc1ccc(O)cc1)C(=O)N[C@@H](CCCNC(=N)N)C(=O)N[C@@H](CCCCN)C(=O)N[C@@H](CCC(N)=O)C(=O)N[C@@H](CC(C)C)C(=O)N[C@@H](C)C(=O)N[C@H](C(=O)N[C@@H](CCCCN)C(=O)N[C@@H](CCCCN)C(=O)N[C@@H](Cc1ccc(O)cc1)C(=O)N[C@@H](CC(C)C)C(=O)N[C@@H](C)C(=O)N[C@@H](C)C(=O)N[C@H](C(=O)N[C@@H](CC(C)C)C(N)=O)C(C)C)C(C)C)[C@@H](C)O [Peptide 24] (Ac-HA[Ala(1H-tetrazol-5-yl)]GIFT[Ala(1H-tetrazol-5-yl)]AYSRYRKQLAVKKYLAAVL-NH2) | 98.1 | 94.3 | – |
| CC[C@H](C)[C@H](NC(=O)CNC(=O)[C@H](Cc1nnn[nH]1)NC(=O)[C@H](CO)NC(=O)[C@H](Cc1c[nH]cn1)NC(C)=O)C(=O)N[C@@H](Cc1ccccc1)C(=O)N[C@H](C(=O)N[C@@H](Cc1nnn[nH]1)C(=O)N[C@@H](C)C(=O)N[C@@H](Cc1ccc(O)cc1)C(=O)N[C@@H](CO)C(=O)N[C@@H](CCCNC(=N)N)C(=O)N[C@@H](Cc1ccc(O)cc1)C(=O)N[C@@H](CCCNC(=N)N)C(=O)N[C@@H](CCCCN)C(=O)N[C@@H](C)C(=O)N[C@@H](CC(C)C)C(=O)N[C@@H](C)C(=O)N[C@H](C(=O)N[C@@H](CCCCN)C(=O)N[C@@H](CCCCN)C(=O)N[C@@H](Cc1ccc(O)cc1)C(=O)N[C@@H](CC(C)C)C(=O)N[C@@H](C)C(=O)N[C@@H](C)C(=O)N[C@H](C(=O)N[C@@H](CC(C)C)C(N)=O)C(C)C)C(C)C)[C@@H](C)O [Peptide 26] (Ac-HS[Ala(1H-tetrazol-5-yl)]GIFT[Ala(1H-tetrazol-5-yl)]AYSRYRKALAVKKYLAAVL-NH2) | – | – | remaining rate after correction for water, 60° C., 1 week preservation (Table 10, HPLC conditions 3): 98.0%; remaining rate after correction for water, 60° C., 2 weeks preservation (Table 10, HPLC conditions 3): 94.8% |
| CC[C@H](C)[C@H](NC(=O)CNC(=O)[C@H](Cc1nnn[nH]1)NC(=O)[C@H](CO)NC(=O)[C@H](Cc1c[nH]cn1)NS(C)(=O)=O)C(=O)N[C@@H](Cc1ccccc1)C(=O)N[C@H](C(=O)N[C@@H](Cc1nnn[nH]1)C(=O)N[C@@H](C)C(=O)N[C@@H](Cc1ccc(O)cc1)C(=O)N[C@@H](CO)C(=O)N[C@@H](CCCNC(=N)N)C(=O)N[C@@H](Cc1ccc(O)cc1)C(=O)N[C@@H](CCCNC(=N)N)C(=O)N[C@@H](CCCCN)C(=O)N[C@@H](CCC(N)=O)C(=O)N[C@@H](CC(C)C)C(=O)N[C@@H](C)C(=O)N[C@H](C(=O)N[C@@H](CCCCN)C(=O)N[C@@H](CCCCN)C(=O)N[C@@H](Cc1ccc(O)cc1)C(=O)N[C@@H](CC(C)C)C(=O)N[C@@H](C)C(=O)N[C@@H](C)C(=O)N[C@H](C(=O)N[C@@H](CC(C)C)C(N)=O)C(C)C)C(C)C)[C@@H](C)O [Peptide 29] (Ms-HS[Ala(1H-tetrazol-5-yl)]GIFT[Ala(1H-tetrazol-5-yl)]AYSRYRKQLAVKKYLAAVL-NH2) | – | – | remaining rate after correction for water, 60° C., 2 weeks preservation (Table 7-2): 91.9% |
| CC[C@H](C)[C@H](NC(=O)[C@H](C)NC(=O)[C@H](Cc1nnn[nH]1)NC(=O)[C@H](CO)NC(=O)[C@H](Cc1c[nH]cn1)NS(C)(=O)=O)C(=O)N[C@@H](Cc1ccccc1)C(=O)N[C@H](C(=O)N[C@@H](Cc1nnn[nH]1)C(=O)N[C@@H](CO)C(=O)N[C@@H](Cc1ccc(O)cc1)C(=O)N[C@@H](CO)C(=O)N[C@@H](CCCNC(=N)N)C(=O)N[C@@H](Cc1ccc(O)cc1)C(=O)N[C@@H](CCCNC(=N)N)C(=O)N[C@@H](CCCCN)C(=O)N[C@@H](CCC(N)=O)C(=O)N[C@@H](CC(C)C)C(=O)N[C@@H](C)C(=O)N[C@H](C(=O)N[C@@H](CCCCN)C(=O)N[C@@H](CCCCN)C(=O)N[C@@H](Cc1ccc(O)cc1)C(=O)N[C@@H](CC(C)C)C(=O)N[C@@H](C)C(=O)N[C@@H](C)C(=O)N[C@H](C(=O)N[C@@H](CC(C)C)C(N)=O)C(C)C)C(C)C)[C@@H](C)O [Peptide 30] (Ms-HS[Ala(1H-tetrazol-5-yl)]AIFT[Ala(1H-tetrazol-5-yl)]SYSRYRKQLAVKKYLAAVL-NH2) | – | – | remaining rate after correction for water, 60° C., 2 weeks preservation (Table 7-2): 92.2% |

The next lines start with results.

| remaining rate after correction for water, 60° C., 1 week preservation (Table 7) [%] | remaining rate after correction for water, 60° C., 2 weeks preservation (Table 7) [%] | SMILES | other results |
| --- | --- | --- | --- |
| 95.8 | 91.2 | CC[C@H](C)[C@H](NC(=O)CNC(=O)[C@H](Cc1nnn[nH]1)NC(=O)[C@H](C)NC(=O)[C@H](Cc1c[nH]cn1)NC(C)=O)C(=O)N[C@@H](Cc1ccccc1)C(=O)N[C@H](C(=O)N[C@@H](Cc1nnn[nH]1)C(=O)N[C@@H](CO)C(=O)N[C@@H](Cc1ccc(O)cc1)C(=O)N[C@@H](CO)C(=O)N[C@@H](CCCNC(=N)N)C(=O)N[C@@H](Cc1ccc(O)cc1)C(=O)N[C@@H](CCCNC(=N)N)C(=O)N[C@@H](CCCCN)C(=O)N[C@@H](CCC(N)=O)C(=O)N[C@@H](C)C(=O)N[C@@H](C)C(=O)N[C@H](C(=O)N[C@@H](CCCCN)C(=O)N[C@@H](CCCCN)C(=O)N[C@@H](Cc1ccc(O)cc1)C(=O)N[C@@H](CC(C)C)C(=O)N[C@@H](C)C(=O)N[C@@H](C)C(=O)N[C@H](C(=O)N[C@@H](CC(C)C)C(N)=O)C(C)C)C(C)C)[C@@H](C)O [Peptide 25] (Ac-HA[Ala(1H-tetrazol-5-yl)]GIFT[Ala(1H-tetrazol-5-yl)]SYSRYRKQAAVKKYLAAVL-NH2) | – |
| 94.6 | 90.5 | CC[C@H](C)[C@H](NC(=O)CNC(=O)[C@H](Cc1nnn[nH]1)NC(=O)[C@H](CO)NC(=O)[C@H](Cc1c[nH]cn1)NC(C)=O)C(=O)N[C@@H](Cc1ccccc1)C(=O)N[C@H](C(=O)N[C@@H](Cc1nnn[nH]1)C(=O)N[C@@H](CO)C(=O)N[C@@H](Cc1ccc(O)cc1)C(=O)N[C@@H](CO)C(=O)N[C@@H](CCCNC(=N)N)C(=O)N[C@@H](Cc1ccc(O)cc1)C(=O)N[C@@H](CCCNC(=N)N)C(=O)N[C@@H](CCCCN)C(=O)N[C@@H](C)C(=O)N[C@@H](C)C(=O)N[C@@H](C)C(=O)N[C@H](C(=O)N[C@@H](CCCCN)C(=O)N[C@@H](CCCCN)C(=O)N[C@@H](Cc1ccc(O)cc1)C(=O)N[C@@H](CC(C)C)C(=O)N[C@@H](C)C(=O)N[C@@H](C)C(=O)N[C@H](C(=O)N[C@@H](CC(C)C)C(N)=O)C(C)C)C(C)C)[C@@H](C)O [Peptide 28] (Ac-HS[Ala(1H-tetrazol-5-yl)]GIFT[Ala(1H-tetrazol-5-yl)]SYSRYRKAAAVKKYLAAVL-NH2) | – |
